What was measured:
[1] = test system: amyloid in brain of AD patients; assay: Autoradiography of brain slice of AD patients; format: binding, human; details: 5 μm brain slice of AD patients, 10 kBq/mL, compared with immunostaining by anti-amyloid antibody
Method: The following experiment was carried out in order to examine whether the compound of the present invention can image amyloid in brain of AD patients.
• (1) A 5 μm thick brain slice of AD patients was prepared from a brain tissue of AD patients available from Analytical Biological Services Inc. (United States). • (2) The brain slice prepared for each test substance was immersed in PBS 3 times in total: 15 minutes, 5 minutes and 5 minutes in this order. Next, it was immersed in a 1% BSA-containing PBS for 30 minutes to conduct hydrophilization. As the test substance, a 1% BSA-containing PBS containing each of Compound 1, Compound 2, Compound 3, Compound 4, Compound 5 and [^123I]-IMPY (radioactive concentration: 10 kBq/mL) was prepared and used. The above hydrophilized brain slice was immersed at room temperature in each of the test substance solutions. Then, it was immersed in a 1% BSA-containing PBS for 5 minutes, next in a PBS for 5 minutes and further in a PBS for 5 minutes to wash the brain slices. The washed brain slice was sufficiently dried, and then exposed to an imaging plate for 16 hours, and then autoradiogram image analysis was carried out by use of a Bio-imaging Analyzer (type: BAS-2500; manufactured by FUJIFILM Corporation) (FIG. 7, FIG. 8, FIG. 9, FIG. 10, FIG. 11, FIG. 12). • (3) Separately, immunostaining at a site of amyloid deposition with an anti-amyloid antibody was carried out using adjacent slices which were subjected to hydrophilization in accordance with the same procedures as the above. Anti-Human Amyloidβ(N) (82E1) Mouse IgG MoAb (Immuno-Biological Laboratories Co., Ltd.) was used as the anti-amyloid antibody, and Anti-Mouse IgG (H+L) Goat IgG Fab′-HRP (Immuno-Biological Laboratories Co., Ltd.) was used as a secondary antibody. The site of amyloid deposition was detected by applying the DAB+(3,3′-diaminobenzidinetetrahydrochloride) substrate kit (Dako) to HRP attached to the secondary antibody (FIG. 13). Results

amyloid aggregates = assay: In vitro binding test with gray matter and white matter homogenate of brain of AD patients; design: species or system human; details: for Radioactive amount attached to brain tissue of AD patients (%), Gray matter: brain gray matter homogenate of AD patients (amyloid deposition); for Radioactive amount attached to brain tissue of AD patients (%), Gray matter / Radioactive amount attached to brain tissue of AD patients (%), White matter: 100 μg protein/mL, 3 hours, 22° C., relative to added radioactivity; for Radioactive amount attached to brain tissue of AD patients (%), White matter: brain white matter homogenate of AD patients (no amyloid); for Binding property to amyloid deposited in the brain (in words): gray matter versus white matter homogenate of AD patients
Method: Binding properties to amyloid aggregates of Compound 1, Compound 3, Compound 4, Compound 5 and [^123I]-IMPY were evaluated by the following in vitro binding test.
The assay was conducted using a gray matter homogenate of brain of AD patients and a white matter homogenate of brain of AD patients, which were prepared from a brain tissue (Frontal lobe) of AD patients commercially available from Analytical Biological Services Inc. (United States).
To each well of a 96-well microplate, 150 μL of a 0.1% BSA-containing 5 mmol/L phosphate buffer saline solution and 50 μL of a sample solution prepared above were added. Two wells were afforded to each sample solution. Of the two wells in which each sample solution was added, one received 50 μL of the brain grey matter homogenate of AD patients, and the other received 50 μL of the brain white matter homogenate of AD patients (final concentration: 100 μg protein/mL), so that the reaction was initiated. After the reaction solution was shaken for 3 hours (22° C., 400 rpm), a glass fiber filter (Multiscreen HTS FB, manufactured by Millipore) was used to filter the reaction solution. The filtrated filter was washed with a 0.1% BSA-containing 5 mmol/L phosphate buffer saline solution (200 μL, 3 times), and then radioactivity remained in the filter was measured with an Autowell Gammma system (type: ARC-7001, manufactured by Aloka). The ratio (%) of the radioactivity attached to the brain grey matter homogenate of AD patients or the brain white matter homogenate of AD patients relative to the added-radioactivity was calculated from the resulting count. Meanwhile, the above was repeated 3 times.

[2] = Measurement of transferability into brain and clearance (radioactive accumulation in brain); details: rats; for Radioactive accumulation per unit weight (% ID/g) in brain, After 2 min. / Radioactive accumulation per unit weight (% ID/g) in brain, After 60 min.: intravenous injection (tail vein); for Radioactive accumulation per unit weight (% ID/g) in brain, After 2 min.: 2 minutes after the injection; for Radioactive accumulation per unit weight (% ID/g) in brain, After 60 min.: 60 minutes after the injection; for Transferability to brain and clearance from brain (in words): intravenous injection, 2 and 60 minutes
Method: Using Compound 1, Compound 2, Compound 3, Compound 4 and Compound 5, radioactive accumulation in brain of male Wistar rats (8-week old) was measured.
A solution in which Compound 1, Compound 2, Compound 4 and Compound 5 were respectively dissolved in a physiological saline solution containing 50 mmol/L of L-cysteine hydrochloride was prepared, to obtain a sample solution (radioactive concentration: all 37 MBq/mL). A solution in which Compound 3 was dissolved in a physiological saline solution containing 10% ethanol and 50 mmol/L of L-cysteine hydrochloride was prepared, to obtain a sample solution (radioactive concentration: 37 MBq/mL). The sample solution was injected under non-anesthesia into the tail vein of male Wistar rats (8-week old) (dosage: 0.2 mL, dosed radioactivity: 7.4 MBq equivalent). The rats were sacrificed by decapitating under non-anesthesia to sample bloods and brains 2 and 60 minutes after the injection. Brains were subjected to measurement of mass of brains and further subjected to measurement of radioactivity (hereinafter referred to as A in this Example) with a single channel analyzer (detector type: SP-20 manufactured by OHYO KOKEN KOGYO Co., Ltd.). Further, the radioactivity level of the rest of the whole body including blood was measured in the same manner as above (hereinafter referred to as B in this Example). Using these measurement results, the amount of radioactive accumulation per unit weight of brain (% ID/g) at the respective time points after the dissection were calculated in accordance with the following formula (2).
The same procedure as the above was carried out to calculate the amount of radioactive accumulation per unit weight of brain (% ID/g) at the respective time points after the dissection.
Meanwhile, in this Example, three animals were used for the experiment at the respective time points.

[3] = Measurement of partition coefficient based on the octanol extraction method; format: physicochemical; details: 1-octanol/water; average of 200 μL, 400 μL and 800 μL samples
Method: Partition coefficients based on the octanol extraction method (hereinafter referred to as log Poctanol) were measured, which are generally known as an indicator of permeability of compounds through the blood-brain barrier (hereinafter referred to as BBB).
Compound 1, Compound 2, Compound 3 and Compound 4 were adjusted to about 1 MBq/mL respectively using a water saturated 1-octanol solution to obtain sample solutions. Each sample solution in an amount of 30 μL was added to three microtubes. The three microtubes to which each sample solution was added were supplemented with both water saturated 1-octanol and 1-octanol saturated water so as to make the volume to be 200 μL, 400 μL or 800 μL, respectively (referred to as 200 μL sample, 400 μL sample and 800 μL sample, respectively). Each microtube was subjected to stirring, and then was shaken for 5 minutes (20 to 25±2° C., 20 rpm/min). Next, the mixture in each microtube was centrifuged (23° C., 3000 g×20 min.) with a centrifuge (type: T2-MC, manufactured by BECKMAN), and then 50 μL each of the octanol layer and the water layer was obtained, and subjected to measurement of radioactivity with an Autowell Gamma system (Type: ARC-7001, manufactured by Aloka). Using the obtained count, log Poctanol was calculated in accordance with the following equation (1). Meanwhile, the value of log Poctanol was an average value of the values which were respectively calculated for the 200 μL sample, the 400 μL sample and the 800 μL sample.

[123I]c1ccc2nc(-c3ccc(-n4ccnn4)nc3)cn2c1 [Compound 1, [^123I]-6-iodo-2-[2-(1H-1,2,3-triazole-1-yl)pyridine-5-yl]imidazo[1,2-a]pyridine]
Binding to the site of amyloid deposition on autoradiogram (in words) [1]: binding of the compounds to the site of amyloid deposition confirmed by immunostaining was also be confirmed
Radioactive amount attached to brain tissue of AD patients (%), Gray matter (amyloid aggregates): 2.59%
Radioactive amount attached to brain tissue of AD patients (%), White matter (amyloid aggregates): 0.48%
Binding property to amyloid deposited in the brain (in words) (amyloid aggregates): have a binding property to amyloid deposited in the brain
Radioactive accumulation per unit weight (% ID/g) in brain, After 2 min. [2]: 1.226 % ID/g
Radioactive accumulation per unit weight (% ID/g) in brain, After 60 min. [2]: 0.028 % ID/g
Transferability to brain and clearance from brain (in words) [2]: excellent transferability to brain and rapid clearance from brain
logPoctanol value [3]: 2.10

CN(C)c1ccc(-c2cn3cc(I)ccc3n2)cc1 [[^123I]-IMPY, 6-iodo-2-[4′-(N,N-dimethylamino)phenyl]imidazo[1,2-a]pyridine, reference compound]
Binding to the site of amyloid deposition on autoradiogram (in words) [1]: binding of the compounds to the site of amyloid deposition confirmed by immunostaining was also be confirmed
Radioactive amount attached to brain tissue of AD patients (%), Gray matter (amyloid aggregates): 1.97%
Radioactive amount attached to brain tissue of AD patients (%), White matter (amyloid aggregates): 0.77%
Radioactive accumulation per unit weight (% ID/g) in brain, After 2 min. [2]: 1.644 % ID/g
Radioactive accumulation per unit weight (% ID/g) in brain, After 60 min. [2]: 0.085 % ID/g

[^123I]-6-iodo-2-[2-(1H-1,2,4-triazole-1-yl)pyridine-5-yl]imidazo[1,2-a]pyridine [Compound 4]
Binding to the site of amyloid deposition on autoradiogram (in words) [1]: binding of the compounds to the site of amyloid deposition confirmed by immunostaining was also be confirmed
Radioactive amount attached to brain tissue of AD patients (%), Gray matter (amyloid aggregates): 1.13%
Radioactive amount attached to brain tissue of AD patients (%), White matter (amyloid aggregates): 0.17%
Binding property to amyloid deposited in the brain (in words) (amyloid aggregates): have a binding property to amyloid deposited in the brain
Radioactive accumulation per unit weight (% ID/g) in brain, After 2 min. [2]: 1.287 % ID/g
Radioactive accumulation per unit weight (% ID/g) in brain, After 60 min. [2]: 0.056 % ID/g
Transferability to brain and clearance from brain (in words) [2]: excellent transferability to brain and rapid clearance from brain
logPoctanol value [3]: 2.23

[^123I]-6-iodo-2-[2-(1H-imidazole-1-yl)pyridine-5-yl]imidazo[1,2-a]pyridine [Compound 3]
Binding to the site of amyloid deposition on autoradiogram (in words) [1]: binding of the compounds to the site of amyloid deposition confirmed by immunostaining was also be confirmed
Radioactive amount attached to brain tissue of AD patients (%), Gray matter (amyloid aggregates): 2.00%
Radioactive amount attached to brain tissue of AD patients (%), White matter (amyloid aggregates): 0.83%
Binding property to amyloid deposited in the brain (in words) (amyloid aggregates): have a binding property to amyloid deposited in the brain
Radioactive accumulation per unit weight (% ID/g) in brain, After 2 min. [2]: 1.186 % ID/g
Radioactive accumulation per unit weight (% ID/g) in brain, After 60 min. [2]: 0.246 % ID/g
Transferability to brain and clearance from brain (in words) [2]: excellent transferability to brain and rapid clearance from brain
logPoctanol value [3]: 1.91

[^123I]-6-iodo-2-[2-(2H-1,2,3-triazole-2-yl)pyridine-5-yl]imidazo[1,2-a]pyridine [Compound 2]
Binding to the site of amyloid deposition on autoradiogram (in words) [1]: binding of the compounds to the site of amyloid deposition confirmed by immunostaining was also be confirmed
Radioactive accumulation per unit weight (% ID/g) in brain, After 2 min. [2]: 1.160 % ID/g
Radioactive accumulation per unit weight (% ID/g) in brain, After 60 min. [2]: 0.027 % ID/g
Transferability to brain and clearance from brain (in words) [2]: excellent transferability to brain and rapid clearance from brain
logPoctanol value [3]: 2.05

[^123I]-6-iodo-2-[2-(pyrazole-1-yl)pyridine-5-yl]imidazo[1,2-a]pyridine [Compound 5]
Binding to the site of amyloid deposition on autoradiogram (in words) [1]: binding of the compounds to the site of amyloid deposition confirmed by immunostaining was also be confirmed
Radioactive amount attached to brain tissue of AD patients (%), Gray matter (amyloid aggregates): 2.41%
Radioactive amount attached to brain tissue of AD patients (%), White matter (amyloid aggregates): 0.77%
Binding property to amyloid deposited in the brain (in words) (amyloid aggregates): have a binding property to amyloid deposited in the brain
Radioactive accumulation per unit weight (% ID/g) in brain, After 2 min. [2]: 1.500 % ID/g
Radioactive accumulation per unit weight (% ID/g) in brain, After 60 min. [2]: 0.079 % ID/g
Transferability to brain and clearance from brain (in words) [2]: excellent transferability to brain and rapid clearance from brain

— patent US9211350B2, “Compound with amyloid affinity” (priority 2011, dated 2015)
